In ChEMBL document CHEMBL1152142, “Validation of high-affinity binding sites for succinic acid through distinguishable binding of gamma-hydroxybutyric acid receptor-specific NCS 382 antipodes” (Bioorg Med Chem Lett, 2008):
Active and inactive are the calls of the source. The rule behind the calls is not given here.

What was measured:
[1] = biological target: T1, Gamma-hydroxybutyrate receptor (Rattus norvegicus) (UniProt Q6RY99); test: Binding affinity to gamma-hydroxybutyrate binding site of gamma-hydroxybutyrate receptor in rat forebrain synaptic membranes at 100 uM; format: cell membranes; conditions: Membrane
T1 sequence (whole entry): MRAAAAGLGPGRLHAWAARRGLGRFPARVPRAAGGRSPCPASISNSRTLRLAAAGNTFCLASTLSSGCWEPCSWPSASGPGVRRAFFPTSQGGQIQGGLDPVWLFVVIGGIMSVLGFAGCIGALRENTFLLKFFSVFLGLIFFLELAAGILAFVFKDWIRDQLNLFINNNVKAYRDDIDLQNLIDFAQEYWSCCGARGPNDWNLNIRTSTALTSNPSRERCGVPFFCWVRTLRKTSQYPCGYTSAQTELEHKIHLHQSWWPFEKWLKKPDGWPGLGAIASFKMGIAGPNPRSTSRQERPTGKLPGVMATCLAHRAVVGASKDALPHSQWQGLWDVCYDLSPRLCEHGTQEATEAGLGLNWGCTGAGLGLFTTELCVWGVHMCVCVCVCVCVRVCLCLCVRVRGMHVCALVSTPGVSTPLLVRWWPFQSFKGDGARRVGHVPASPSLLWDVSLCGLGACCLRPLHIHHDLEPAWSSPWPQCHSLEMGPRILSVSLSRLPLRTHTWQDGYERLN

[2] = biological target: T1, Gamma-hydroxybutyrate receptor (Rattus norvegicus); test: Binding affinity to succinic acid binding site of gamma-hydroxybutyrate receptor in rat forebrain synaptic membranes at 100 uM; format: cell membranes; conditions: Membrane
[3] = biological target: Calcium/calmodulin-dependent protein kinase type II subunit alpha (Rattus norvegicus, UniProt P11275); test: Displacement of [3H]GHB from gamma-hydroxybutyrate binding site of gamma-hydroxybutyrate receptor in rat forebrain synaptic membranes; format: cell membranes, Membrane
Chain of Calcium/calmodulin-dependent protein kinase type II subunit alpha (P11275 whole entry): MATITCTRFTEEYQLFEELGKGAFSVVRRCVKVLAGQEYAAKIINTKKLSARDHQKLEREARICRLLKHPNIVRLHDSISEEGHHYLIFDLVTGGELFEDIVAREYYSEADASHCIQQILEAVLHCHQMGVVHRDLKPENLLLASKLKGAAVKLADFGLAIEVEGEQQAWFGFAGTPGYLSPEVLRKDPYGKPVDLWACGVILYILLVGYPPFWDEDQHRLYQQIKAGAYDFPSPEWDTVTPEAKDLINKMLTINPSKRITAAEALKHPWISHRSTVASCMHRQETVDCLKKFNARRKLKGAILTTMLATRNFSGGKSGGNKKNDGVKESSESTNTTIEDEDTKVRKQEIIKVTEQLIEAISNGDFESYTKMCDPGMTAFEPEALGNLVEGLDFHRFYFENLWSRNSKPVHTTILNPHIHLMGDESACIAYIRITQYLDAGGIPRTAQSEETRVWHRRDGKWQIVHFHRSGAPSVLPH

[4] = biological target: T2, Gamma-hydroxybutyrate receptor (Rattus norvegicus, UniProt Q6RY99); test: Displacement of [3H]SUC from succinic acid binding site of gamma-hydroxybutyrate receptor in rat forebrain synaptic membranes
T2 sequence (Q6RY99 whole entry): T1 sequence (whole entry)

| Activity [1] | Activity [2] | IC50 [3] [nM] | IC50 [4] [nM] | SMILES |
| --- | --- | --- | --- | --- |
| inactive | inactive | – | – | O=C(O)[C@H]1C[C@H](O)CCN1 |
| – | – | 900 | 500 | O=C(O)/C=C1\CCCc2ccccc2C1O (racemic) |
| inactive | inactive | – | – | COC(=O)[C@@H]1C[C@H](O)CCN1 |
| 30% | 26% | – | – | O=C(O)[C@H]1C[C@@H](O)CCN1 |
| – | – | 800 | 400 | O=C(O)/C=C1\CCCc2ccccc2[C@@H]1O |
| inactive | inactive | – | – | COC(=O)[C@H]1C[C@H](O)CCN1 |
| inactive | inactive | – | – | O=C(O)[C@@H]1C[C@H](O)CCN1 |
| – | – | 93000 | 74000 | O=C(O)/C=C1\CCCc2ccccc2[C@H]1O |
